In one assay the target is porcine pancreatic PLA2 (Sus scrofa, UniProt P00592). The assay can be described thus: biochemical. As to the method: The ability of a compound to modulate PLA2 activity (cleavage of ^14 C-dipalmitoyl phosphotidylcholine at the 2-position to ^14 C-palmitic acid) was quantitated in this assay. The reaction mixture contained Tris buffer (25 mM), pH 8.0, calcium chloride (2.0 mM), bovine serum albumin (0.5 mg), dipalmitoyl phosphotidylcholine (8×10^-5M), (^14 C-palmitoyl)dipalmitoyl phosphotidylcholine (6×10^3cpm), porcine pancreatic PLA2 (3.2 units) and the test compound. The reaction was run at 37° C. in a shaking incubator. The reaction was quenched and an internal standard was added in order to determine sample recovery. The samples were loaded onto C18 columns, eluted with ethanol, and the radioactivity was then measured. […] See Feyen, J. H. M., et al., Journal of Chromatography 259 (1983), pp. 338-340.
porcine pancreatic PLA2, sequence (P00592 23-146): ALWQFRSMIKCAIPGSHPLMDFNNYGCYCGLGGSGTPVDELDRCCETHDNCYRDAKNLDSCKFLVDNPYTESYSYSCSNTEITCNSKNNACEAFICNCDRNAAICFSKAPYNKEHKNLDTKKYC

Assay [1] has as its system ear edema induced by topical application of TPA (phorbol 12-myristate acetate). The assay can be described thus: TPA-Induced Ear Edema (TPAEE). Type of assay: in vivo, Female Swiss Webster mice. Conditions: for TPAEE, ear edema: 10 μg (10 μg/ear), TPA 10 μg/ear, five hours. The method, then:
The purpose of this assay was to determine the ability of a topically-applied compound to prevent ear edema induced by topical application of TPA (phorbol 12-myristate acetate). Female Swiss Webster mice topically received TPA (10 μg/ear) on the right ear and vehicle on the left ear. The test compound (10 μg/ear) was applied to both ears. After five hours, the animals were sacrificed and an ear punch (4 mm) was taken from each ear. The difference in right and left ear punch weights for each animal was determined to assess activity. […] See Young, J. M. et al., J. Invest. Dermatol., 80 (1983), pp. 48-52.

Assay [2] concerns mouse ear edema induced by topical application of arachidonic acid. Nature of the assay: Arachidonic Acid-Induced Ear Edema (AAEE). It counts as in vivo, Female Swiss Webster mice. To be noted: for AAEE, ear edema: 1 mg (1.0 mg/ear), arachidonic acid 4 mg/ear. As to the method:
The purpose of this assay was to determine the ability of a topically-applied compound to prevent mouse ear edema induced by topical application of arachidonic acid. Female Swiss Webster mice topically received vehicle or test compound (1.0 mg/ear) on both ears (10 μl on outer and inner ears). After 30 minutes, the right ear of all groups received arachidonic acid (4 mg/ear) and the left ear received vehicle alone. After an additional 1 hour, the mice were sacrificed and an ear punch (4 mm) was taken from each ear. The difference in right and left ear punch weights for each animal was determined to assess activity. […] See Young, J. M. et al., Invest. Dermatol., 80, (1983), pp 48-52.

Assay [3] relates to naja naja (snake venom) phospholipase A2 -induced paw edema. Nature of the assay: Phospholipase A2-induced Paw Edema (PIPE). Type of assay: in vivo, male Wistar rats. To be noted: 0.1 M; injected with PLA2 (3 units/paw) in subplantar region of rat left hindpaw; two hours. The method, then:
The ability of compounds to prevent naja naja (snake venom) phospholipase A2 -induced paw edema in male Wistar rats (100-125 g) was measured. PLA2 (3 units/paw) alone or with 0.1M of the test compound was injected in the subplantar region of the rat left hindpaw. Immediately subsequent to the injection and at two hours post administration the paw was immersed in a mercury bath, and paw displacement was measured on a recorder via a transducer. […] See Giessler, A. J. et al., Agents and Actions, Vol. 10, Trends in Inflammation Research (1981), p. 195.

In assay [4] the test system is cultured human epidermal keratinocytes. The assay can be described thus: Cultured Human Keratinocyte DNA Synthesis (in vitro DNA). It counts as cell-based. Conditions: Standard, 24 hours incubation, 3H-thymidine incorporation. The method, then: The effect of a compound on the proliferation of cultured human epidermal keratinocytes was measured. After incubation with a test compound for 24 hours, the cultures were pulse-labelled for three hours with 5 μCi of ^3 H-thymidine. The cultures were extracted for DNA successively with trichloroacetic acid and ethanol, and thereafter dissolved with NaOH. The radioactive incorporation of ^3 H-thymidine into DNA was determined.

For assay [5], the system named is epidermal DNA synthesis (proliferation of skin). Nature of the assay: Epidermal DNA Synthesis (in vivo DNA). To be noted: Standard; topical, 24 hours, 3H-thymidine incorporation. Further details: species or system HRS/J hairless mice. The method, then:
The influence of compounds on the proliferation of skin was assessed by determining inhibition or stimulation of DNA synthesis. HRS/J hairless mice received topical application of a compound or vehicle alone on the dorsal aspect. After 24 hours, ^3 H-thymidine (25 μCi) was administered by intraperitoneal injection. After an additional hour, animals were sacrificed and the dorsal skin was removed. The epidermal layer was peeled from the dermis by heat separation. Unincorporated ^3 H-thymidine was removed by washing successively with trichloroacetic acid and ethanol. Samples were centrifuged at 2,000 rpm and supernatants discarded. The epidermal sheets were then extracted with warm trichloroacetic acid and the supernatants analyzed for ^3 H-thymidine incorporation by total DNA by a standard colorimetric assay. […] See Lowe, N. J., et at., Arch. Dermatol., 117 (1981), pp. 394-8; and Burton, K., Biochem. J. 62 (1956), pp. 315-22.

[6] abbreviates: pH 8, read-out: PLA2, difference vs. control.
Where [7] appears, read: 0.01 M, in vitro, pH 8.0, 37° C., read-out: PLA2, difference vs. control.

We go through 15 molecules from patent US4931457A, “Naphthylamino-and naphthyloxy-pyridinamine comounds useful as topical antiinflammatory agents for the treatment of skin disorders” (Hoechst-Roussel Pharmaceuticals Inc., priority 1989, dated 1990).

Counter-ions that a name gives are not always drawn. Like-named read-outs stand apart in the source and are kept apart here.

By IC50 is commonly meant the concentration at which inhibition is half-maximal. Lower therefore signals higher potency.

`CCN(CC)CCCC(C)Nc1c2ccc(Cl)cc2nc2ccc(OC)cc12` (stereo not shown) [quinacrine, reference compound] yielded an IC50 against porcine pancreatic PLA2 of 350 µM.
Regarding `Nc1ccncc1Oc1cccc2c1CCCC2` [3-(5,6,7,8-Tetrahydro-1-naphthyloxy)-4-pyridinamine hydrochloride], the inhibition at 10000 µM on porcine pancreatic PLA2 (setting [6]) came to 110%.
As to `Nc1ccncc1Oc1ccc(Cl)c2ccccc12` [3-(4-Chloro-1-naphthyloxy)-4-pyridinamine oxalate], the inhibition at 10000 µM at porcine pancreatic PLA2 (setting [6]) came out at 110%.
On to `O=[N+]([O-])c1cnccc1Oc1cccc2ccccc12` [4-(1-Naphthyloxy)-3-nitropyridine], for which, in assay [1], the “TPAEE, ear edema” value was -72%.
For the molecule `Nc1ccncc1Oc1ccc2ccccc2c1` [3-(2-Naphthyloxy)-4-pyridinamine], the “AAEE, ear edema” value in assay [2] is on record as -59%.
`C[C@]12CCC(=O)C=C1CC[C@@H]1[C@@H]2[C@@H](O)C[C@@]2(C)[C@H]1CC[C@]2(O)C(=O)CO` [hydrocortisone, reference compound] showed an ED50 in assay [1] (Standard, TPA ear edema, mouse) of 47 μg/ear.
`O=[N+]([O-])c1cc[n+]([O-])cc1Oc1ccc(Cl)c2ccccc12` [3-(4-Chloro-1-naphthyloxy)-4-nitropyridine-N-oxide]: the “TPAEE, ear edema” value in assay [1] is -41%.
As for `O=[N+]([O-])c1cc[n+]([O-])cc1Oc1cccc2ccccc12` [3-(1-Naphthyloxy)-4-nitropyridine-N-oxide], the “AAEE, ear edema” value in assay [2] is -27%.
As for `COc1ccc(Oc2cnccc2N)c2ccccc12` [3-(4-Methoxy-1-naphthyloxy)-4-pyridinamine], the “PIPE, difference in edema vs. control” value in assay [3] was -40%.
Turning to `COc1ccc2c(c1)c(CC(=O)O)c(C)n2C(=O)c1ccc(Cl)cc1` [indomethacin], the ED50 in assay [2] (Standard, arachidonic acid ear edema, mouse) is recorded as 1.5 mg/ear; in assay [5], 1.75 mg/animal. The same molecule returned an IC50 in assay [4] of 38 µM.
On to `Nc1ccncc1Oc1cccc2ccccc12` [3-(1-Naphthyloxy)-4-pyridinamine], for which the “PIPE, difference in edema vs. control” value in assay [3] is reported as -60%. Further, the inhibition at 10000 µM on porcine pancreatic PLA2 (setting [7]) turned out to be 54%. In assay [2], the “AAEE, ear edema” value is given as -66%.
With `Cl.Nc1cnccc1Oc1cccc2ccccc12` [4-(1-Naphthyloxy)-3-pyridinamine hydrochloride], the “TPAEE, ear edema” value in assay [1] is given as -40%.
Regarding `O=[N+]([O-])c1cc[n+]([O-])cc1Oc1cccc2c1CCCC2` [4-Nitro-3-(5,6,7,8-tetrahydro-1-naphthyloxy)pyridine-N-oxide], the inhibition at 10000 µM on porcine pancreatic PLA2 (setting [7]) came out at 38%.
Consider `O=[N+]([O-])c1cc[n+]([O-])cc1Nc1cccc2ccccc12` [N-(1-Naphthyl)-4-nitro-3-pyridinamine-N-oxide], for which the “TPAEE, ear edema” value in assay [1] is -40%.
On the same count and under the same terms, the value for `O=[N+]([O-])c1cc[n+]([O-])cc1Oc1ccc2cc(Br)ccc2c1` [3-(6-Bromo-2-naphthyloxy)-4-nitropyridine-N-oxide] was -43%.
